Test results: PubChem BioAssay AID720587 (Broad Institute, 2013)
Activity calls are given as the source filed them.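 How the source made its calls: active means fitted curve reaches -35% activity change at a concentration below twice the top valid dose tested; inactive means the rest, including effects opposite to the expected direction.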

Test system: not listed separately
Test: A673 Ewing sarcoma viability loss – cell-based, CellTiter-Glo luminescence, cherry-pick retest, confirmation (AID 720587)
Conditions: A673 Ewing sarcoma viability, CellTiter-Glo ATP luminescence, 72 h; at 26 µM (top of the series)

SMILES | activity change, negative = cytotoxicity
CCCc1nc2ccc(NC(=O)c3cccs3)cc2c(=O)n1Cc1ccccc1Cl | 3.49% (inactive)
COc1ccccc1-c1cn(CC[C@H]2CC[C@@H](NC(=O)C3CCCC3)[C@@H](CO)O2)nn1 | 6.63% (inactive)
COC(=O)c1cccc(NC(=O)NC(=O)c2ccc(Cl)cc2)c1 | -6.08% (inactive)
CN(C)c1ccc(N=Nc2ccccc2Br)cc1 | -10.3% (inactive)
COc1ccc(C/C(N)=N/OC(C)=O)cc1OC | 0.039% (inactive)
CC1=NC(=O)C(N=Nc2cccc(C(=O)O)c2)N1c1ccccc1 (stereo unspecified) | -2.93% (inactive)

Test system: A673 Ewing sarcoma viability, CellTiter-Glo ATP luminescence, 72 h
Test: as above
Conditions: not given

SMILES | AC35
C[C@H](CO)N1C[C@H](C)[C@H](CN(C)Cc2ccc(C(=O)Nc3ccccc3N)cc2)Oc2ccc(N(C)C)cc2C1=O | 9.49 µM
COc1ccc(OC)c(-c2nnc3n2N=C(c2ccc(OC)c(OC4CCCC4)c2)CS3)c1 | 2.71 µM
Cc1cccc(NC(=O)CN2CCN(C(=O)CNC(=O)c3ccc(-c4ccccc4)cc3)CC2)c1C | 12.8 µM
COC(=O)C1=C(C)N(Cc2ccccc2C(F)(F)F)C(=NCc2ccc(OC)cc2)NC1c1ccc(C(F)(F)F)cc1 (stereo unspecified) | 13.1 µM
COC(=O)[C@H]1[C@H](CO)[C@H]2Cn3c(ccc(-c4ccccc4F)c3=O)[C@@H]1N2CC1CCCC1 | 17.4 µM
C[C@H](CO)N1C[C@H](C)[C@H](CN(C)Cc2ccc(C(=O)Nc3ccccc3N)cc2)Oc2ccc(NC(=O)C3CC3)cc2CC1=O | 7.86 µM
Oc1c(Cl)cc(Cl)c(Cl)c1Cc1c(O)c(Cl)cc(Cl)c1Cl | 15.9 µM
C[C@H](CO)N1C[C@H](C)[C@H](CN(C)CC2CCCCC2)Oc2ccc(NC(=O)CCCCCC(=O)Nc3ccccc3N)cc2CC1=O | 10.5 µM
COC(=O)C[C@@H]1CC[C@@H]2[C@H](COc3ccc(NC(=O)Nc4ccc(C#N)cc4)cc3C(=O)N2C)O1 | 23.1 µM
C[C@@H]1CCCCO[C@H](CN(C)Cc2ccc(C(=O)Nc3ccccc3N)cc2)[C@@H](C)CN([C@H](C)CO)C(=O)c2cc(NS(=O)(=O)c3ccc(Cl)cc3)ccc2O1 | 14.3 µM
O=C1NC(=O)N(c2ccccc2)C(=O)/C1=C\C=C\c1ccccc1 | 4.03 µM
C[C@H](CO)N1C[C@H](C)[C@H](CN(C)Cc2ccc(C(=O)Nc3ccccc3N)cc2)Oc2c(cccc2N(C)C)C1=O | 17.6 µM
CC(C)CC#Cc1ccc([C@@H]2[C@@H](CO)N3CCCCN(S(=O)(=O)c4ccc(F)cc4)C[C@H]23)cc1 | 8.8 µM
COc1ccc(S(=O)(=O)N2CC[C@@H]3[C@H](CO)Nc4ccc(-c5ccc(C#N)cc5)cc4[C@@H]32)cc1 | 4.23 µM
COC(=O)C[C@H]1CC[C@@H](NC(=O)Nc2ccc(C(F)(F)F)cc2)[C@H](CO)O1 | 18.9 µM
COc1ccc(C2=Nn3c([n+](C)c4ccccc43)SC2)cc1 | 20.2 µM
CC(=O)OC1CC(OC2C(O)CC(OC3C(O)CC(OC4CCC5(C)C(CCC6C5CC(O)C5(C)C(C7=CC(=O)OC7)CCC65O)C4)OC3C)OC2C)OC(C)C1OC1OC(CO)C(O)C(O)C1O (stereo unspecified) | 0.244 µM
COCCOC(=O)N1C(=O)[C@@]2(c3cc(C#CCC(C(=O)OC)C(=O)OC)ccc31)[C@H](c1ccccc1OCCO)N1[C@H](c3ccccc3)[C@H](c3ccccc3)OC(=O)[C@H]1[C@@H]2C(=O)N1CCN(c2ncccn2)CC1 | 5.04 µM
Nc1nc(=S)c2ncn([C@@H]3O[C@H](CO)[C@@H](O)[C@H]3O)c2[nH]1 | 1.53 µM
CCN(CC)c1ccc(C2NC(=O)c3ccccc3N2)cc1 (stereo unspecified) | 21.6 µM
O=C1Nc2cc(C(=O)NCCN3CCCCCC3)ccc2S/C1=C\c1ccccc1 | 8.37 µM
O=C1NC2C(=CC(O)C(O)C2O)c2cc3c(cc21)OCO3 (stereo unspecified) | 0.837 µM
Cc1nc2ncccn2c1-c1csc(Nc2ccc(O)cc2)n1 | 1.35 µM
Nc1sc(-c2ccccc2)cc1-c1n[nH]c(=S)n1C1CCCCC1 | 6.83 µM
CC(=NNc1ccc2ccccc2n1)c1ccccc1O | 13.9 µM
CN1C/C(=C/c2ccsc2)C(=O)/C(=C/c2ccsc2)C1 | 8.67 µM
COc1cc(C(=O)N2CCC(N3CCN(C)CC3)CC2)ccc1Nc1ncc2c(n1)N(C)c1ccccc1C(=O)N2C | 10 µM

SMILES | AC35
CCOc1cc2[nH]c(=S)n(Cc3ccc(C(=O)N4CCN(C)CC4)cc3)c(=O)c2cc1OCC | 19.9 µM
N#CC1C=Cc2c(ccc3ccccc23)N1C(=O)c1ccccc1 (stereo unspecified) | 9.42 µM
COC(=O)C[C@H]1CC[C@H]2[C@@H](COc3ccc(NC(=O)Nc4cccc(Cl)c4)cc3C(=O)N2C)O1 | 14.7 µM
C[C@@H]1CN([C@H](C)CO)C(=O)c2cc(NC(=O)Nc3ccccc3)ccc2O[C@@H]1CN(C)Cc1ccc(C(=O)Nc2ccccc2N)cc1 | 9.7 µM
COc1cccc(O)c1CN1CCC(C(=O)Nc2ccc(-c3cccc(C)c3)cc2)CC1 | 11 µM
C[C@H](CO)N1C[C@H](C)[C@H](CN(C)Cc2ccc(Oc3ccccc3)cc2)Oc2ccc(NC(=O)Cn3cnnn3)cc2CC1=O | 8.16 µM
O=C(Nc1ccc(F)cc1)N1CCCCN2[C@@H](CO)[C@H](c3ccc(C4=CCCCC4)cc3)[C@@H]2C1 | 10.2 µM
C[C@H]1CN([C@@H](C)CO)C(=O)Cc2cc(NC(=O)CCCCCC(=O)Nc3ccccc3N)ccc2O[C@H]1CN(C)Cc1ccc(Cl)c(Cl)c1 | 10.2 µM
Cc1ccccc1NC(=O)C(=Cc1ccc(C(=O)O)cc1)C(=O)Nc1ccccc1C | 5.97 µM
C[C@H](CO)N1C[C@H](C)[C@H](CN(C)Cc2ccc(C(=O)Nc3ccccc3N)cc2)Oc2ccc(NS(=O)(=O)c3cccs3)cc2C1=O | 14.5 µM
O=C(O)c1ccccc1C(=O)Nc1ccc(Oc2ccc3ccccc3c2)cc1 | 15.6 µM
CCCCCCCCNC(C)C(O)c1ccc(SC(C)C)cc1 (stereo unspecified) | 5.92 µM
C[C@@H]1CN([C@H](C)CO)C(=O)Cc2cc(N(C)C)ccc2O[C@H]1CN(C)Cc1ccc(C(=O)Nc2ccccc2N)cc1 | 12.7 µM
C[C@@H]1CN([C@@H](C)CO)S(=O)(=O)c2ccc(C#Cc3ccncc3)cc2O[C@H]1CN(C)S(=O)(=O)c1ccccc1 | 12.4 µM
CC(C)(C)c1ccc(Cn2c(=O)cnc3ccccc32)cc1 | 12.5 µM
CC[C@@H]1C[C@H]2CC[C@H](O2)[C@H](C)C(=O)O[C@@H](C)C[C@@H]2CC[C@@H](O2)[C@@H](C)C(=O)O[C@H](C)C[C@H]2CC[C@H](O2)[C@H](C)C(=O)O[C@@H](C)C[C@@H]2CC[C@@H](O2)[C@@H](C)C(=O)O1 | 0.243 µM
COc1cc(/C=C/C(=O)CC(=O)/C=C/c2ccc(O)c(OC)c2)ccc1O | 2.54 µM
COC(=O)C1=C(C)N(Cc2cccc(C(F)(F)F)c2)C(=NCc2ccc(OC)cc2)NC1c1cccc(F)c1 (stereo unspecified) | 4.46 µM
CN1C(=O)c2cc(NC(=O)c3ccc(C(F)(F)F)cc3)ccc2OC[C@@H]2O[C@@H](CC(=O)NC3Cc4ccccc4C3)CC[C@H]21 | 4.43 µM
COC(=O)C[C@@H]1CC[C@@H]2[C@@H](COc3ccc(NC(=O)Nc4ccccc4C)cc3C(=O)N2C)O1 | 19.7 µM
N#CC1=C(N)Oc2cc(N)ccc2C1c1cccc(Br)c1 (stereo unspecified) | 0.505 µM
COc1ccc(CCCNC(=O)C2Cc3c(-c4ccc5c(c4)OCO5)ccnc3O2)cc1 (stereo unspecified) | 15.8 µM
COc1ccc(OC)c(Cc2cnc3nc(N)nc(N)c3c2C)c1 | 0.196 µM
O=C(NC(c1ccc(F)cc1)c1ccc2ccccc2n1)C1CCN(Cc2cccc(C(F)(F)F)c2)CC1 (stereo unspecified) | 14.6 µM
CCCN1C/C(=C/c2ccc3c(c2)OCO3)C(=O)/C(=C/c2ccc3c(c2)OCO3)C1 | 3.77 µM
N/C(=C\C(=O)c1cc(Cl)ccc1O)C(Cl)(Cl)Cl | 4 µM
C[C@@H]1CN([C@@H](C)CO)C(=O)c2cccc(NS(=O)(=O)c3ccc(F)cc3)c2O[C@@H]1CN(C)Cc1ccc(C(=O)Nc2ccccc2N)cc1 | 8.41 µM

SMILES | AC35
Cc1ccc2c(=O)n3c(nc2c1)C(Cc1ccc(O)cc1)NC(=O)c1cc2ccccc2cc1-3 (stereo unspecified) | 7.13 µM
CCc1cccc2c(C(=O)CN3C(=O)NC4(CCCCC4)C3=O)c[nH]c12 | 8.95 µM
O=C(N/N=C/c1ccc[nH]1)c1cc(-c2ccc(Cl)cc2)nc2ccccc12 | 11.6 µM
Nc1ccn([C@@H]2O[C@H](CO)[C@@H](O)C2O)c(=O)n1 (stereo partly specified) | 0.448 µM
C=CCOc1ccccc1C(=O)/C=C1/C(=O)Nc2ccccc21 | 9.62 µM
CN(CCO)c1ccc(/C=N/Nc2nncc3ccccc23)cc1 | 19.9 µM
CC(C)(C)c1ccc(Oc2ccc(NC(=O)c3ccccc3C(=O)O)cn2)cc1 | 22.2 µM
COC(=O)C[C@@H]1CC[C@@H]2[C@@H](COc3ccc(NC(=O)Nc4cccc(F)c4)cc3C(=O)N2C)O1 | 13.5 µM
CCOc1cc2[nH]c(=S)n(Cc3ccc(C(=O)NCCN(CC)CC)cc3)c(=O)c2cc1OCC | 12 µM
Nc1nc(N)c2cc(Sc3ccc4ccccc4c3)ccc2n1 | 3.35 µM
Cc1cccc(N2CCN(C3C(=O)Nc4ccccc4-n4nnnc43)CC2)c1C (stereo unspecified) | 13.1 µM
COc1cc(/C=C/C(=O)/C=C(O)/C=C/c2ccc(O)c(OC)c2)ccc1O | 2.13 µM
C[C@@H]1CN([C@H](C)CO)S(=O)(=O)c2ccc(C#CC(C)(C)O)cc2O[C@H]1CN(C)Cc1ccc(-c2ccccc2)cc1 | 7.19 µM
O=c1cc(CN2CCN(Cc3ccccc3)CC2)c2ccc(O)c(O)c2o1 | 8.02 µM
Cc1cc(C(=O)Nc2ccc3c(c2)C(=O)N(C)[C@@H]2CC[C@@H](CC(=O)NCc4ccc(-c5ccccc5)cc4)O[C@H]2CO3)no1 | 8.06 µM
O=C1NC(=O)N(Cc2ccc(F)cc2)C(=O)/C1=C\C=C\c1ccco1 | 5.3 µM
COc1ccc(NC(=S)N=Nc2c(O)[nH]c3ccccc23)cc1 | 1.75 µM
Cn1ccc2cc(-c3ccc4ncnc(NCc5cccs5)c4c3)ccc21 | 4.58 µM
COc1cccc(OC)c1C(=O)Nc1cc(C)nn1-c1nc2ccccc2[nH]1 | 13.2 µM
CCCCCCCCn1c2c(c(=N)c3c1CCC3)CCCC2 | 5.07 µM
COC(=O)C[C@@H]1CC[C@@H]2[C@@H](COc3ccc(NC(=O)Nc4cccc(C#N)c4)cc3C(=O)N2C)O1 | 9.17 µM
C[C@]12CC[C@H]3[C@@H](CC[C@]4(O)C[C@@H](O)CC[C@]34C=O)[C@@]1(O)CC[C@@H]2C1=CC(=O)OC1 | 0.641 µM
O=C(c1cccc(S(=O)(=O)NCc2ccccc2)c1)N1CCN(c2ccccc2)CC1 | 20.8 µM
C(=N\Nc1nc2ccccc2s1)/c1ccccn1 | 0.696 µM
COc1ccc(S(=O)(=O)Nc2cccc3c2O[C@H](CN(C)Cc2ccc(C(=O)Nc4ccccc4N)cc2)[C@H](C)CN([C@@H](C)CO)C3=O)cc1 | 5.46 µM
COc1ccc(/C=C/C(=O)c2ccc(C(=O)/C=C/c3ccc(OC)c(OC)c3)cc2)cc1OC | 5.02 µM
